Results: publication PMC2361176, “Inhibitory effects of retinoic acid metabolism blocking agents (RAMBAs) on the growth of human prostate cancer cells and LNCaP prostate tumour xenografts in SCID mice” (British Journal of Cancer, 2006)

How the values were obtained:
[1] = system: Bcl-2; assay: Western-blot analysis of Bcl-2 in LNCaP cells; type: cell-based, human; conditions: data not shown
Protocol: The Western-blot protocol described for cytokeratins 8/18 was followed with some exceptions. Cell lysates (50 μg) were separated on a 15% SDS–PAGE gel. All washing was performed using TBS containing 1% Tween 20 (TBS-T). Blocking was performed using 5% milk in TBS-T. Incubations were performed using rabbit monoclonal IgG antibody to Bad and Bcl-2 (1 : 1000), as well as horseradish peroxidase-linked anti-rabbit IgG antibodies (1 : 2000) (Cell Signaling Technology, Beverly, MA, USA).

[2] = system: LNCaP cells; assay: TUNEL assay of apoptosis in LNCaP cells; type: cell-based, human; conditions: 1 or 5 μM, 6 days
Protocol: A total of 4000 LNCaP cells were plated on each well of an eight-well Lab-Tek II® chamber slide (Nalge Nunc International, Naperville, IL, USA). The LNCaP cells were then treated with either 1 or 5 μM of ATRA or RAMBA for 6 days. Cells were then fixed in 4% paraformaldehyde solution in dH2O. The cells were then processed and stained with FITC (fluorescein isothiocyanate) according to kit instructions (In situ cell death detection kit, AP, Roche Diagnostics Corp., Indianapolis, IN, USA). The FITC-stained cells are then mounted with VectorShield® mounting medium for fluorescence with DAPI (4′,6-diamidine-2′-phenylindole dihydrochloride) nuclear stain (Vector Laboratories, Inc., Burlingame, CA, USA) and covered with ApopTag® plastic coverslips (Intergen Company, Purchase, NY, USA). The slides were then examined under fluorescence microscopy (Eclipse E400, Nikon, Inc., Melville, NY, USA) and counted using SPOT Advance® 3.5 software (Diagnostic Instruments, Inc., Sterling Heights, MI, USA).

[3] = system: LNCaP cells; assay: Cell-cycle analysis (propidium iodide, FACScan); type: cell-based, human; conditions: 1 μM, 6 days
Protocol: LNCaP cells were treated with 1 or 5 μM of ATRA or each of the RAMBAs for 6 days. The cells were trypsinised and washed twice in PBS (Life Technologies, Grand Island, NY, USA). The cells were fixed by adding 70% ethanol and stored at −20°C until staining. The cells were washed twice in PBS. A volume of 1 ml of a propidium iodide (PI) solution (50 μg ml^−1 in PBS) and 500 μl of an RNase stock solution (100 μg ml^−1) were added to the cells and incubated for 1 h in the dark. Approximately 10^4 stained cells were then analysed by flow cytometry (Becton Dickenson FACScan, Franklin Lakes, NJ, USA). The percentages of cells in G0/G1, S, and G2/M phases of the cell cycle as well as percentage of apoptotic cells (sub G0/G1) were determined using MODFIT LT software (Verity Software House, San Jose, CA, USA). The percentages of cells in G0/G1, S, and G2/M phases of the cell cycle were obtained from diploid cells in the sample and the percentage of apoptotic cells (sub G0/G1) was obtained from total cells minus the debris.

[4] = system: human breast T47D cancer cells; parameters: method as in Van Heusden et al, 2002; conditions: 1 μM, ref Van Heusden et al, 2002; cited from earlier work

Compound	expression of Bcl-2 [1]	induction of apoptosis (TUNEL) [2]	Sub-G1 (%) ([3]; apoptotic cells, control 9.02)	G2/M (%) ([3]; control 2.20)	S (%) ([3]; control 15.01)	G0/G1 (%) ([3]; control 82.78)	enhancement of the antiproliferative activity of ATRA [4]
CC1=C(/C=C/C(C)=C/C=C/C(C)=C/C(=O)Nc2ccc(O)cc2)C(C)(C)CCC1 [Compound 4-HPR, reference compound]	did not effect	concentration-dependent induction of apoptosis	7.52	12.03	9.18	79.53	
C[C@@H]([C@H](c1ccc(Nc2nc3ccccc3s2)cc1)n1ccnc1)N(C)C [Compound R116010]							threefold
